Measured values from US7807685B2, “Therapeutic compounds” (CBT Development Limited, priority 2006, dated 2010).
Like-named read-outs stand apart in the source and are kept apart here.

Tests used:
[1] = target: T1, rat adenosine A2a receptors (Rattus norvegicus, UniProt P30543); assay: Binding at rat A2a receptors, rat striatal membranes, [3H]-CGS21680
T1 construct: from tissue; host or cells: rat striatum (membranes)
Experimental: Chemical structures of compounds of the invention are given in the Examples below. Binding experiments were carried out using rat A2a receptors. Ki values were determined for each compound at pH 5.5 and pH 7.4.

[2] = tested on: rat adjuvant model of arthritis; assay: Analgesic relief in rat adjuvant model of arthritis; type: in vivo
adenosine A2A receptor = adenosine A2A receptor (Homo sapiens, UniProt P29274); assay: EC50 at the adenosine A2A receptor; type: biochemical
Excerpt: For the avoidance of doubt, the EC50 value of a compound is defined herein as the concentration of the compound that provokes a receptor response halfway between the baseline receptor response and the maximum receptor response (as determined, for example, using a dose-response curve).
The EC50 value should be determined under standard conditions (balanced salt solutions buffered to pH 7.4). For EC50 determinations using isolated membranes, cells and tissues this would be in buffered salt solution at pH 7.4 (e.g. cell culture medium), for example as in Daly et al., Pharmacol. (1993) 46, 91-100), or preferably as in Tilburg et al (J. Med. Chem. (2002) 45, 91-100). The EC50 could also be determined in vivo by measuring adenosine receptor mediated responses in a normal healthy animal, or even in a tissue perfused under normal conditions (i.e. oxygenated blood, or oxygenated isotonic media, also buffered at pH 7.4) in a normal healthy animal.

[3] = Plasma concentrations after single oral dosing in human volunteers; type: in vivo
[4] = Tachycardia by 12 lead ECGs in human volunteers; type: in vivo
Experimental: Tachycardia was determined using 12 lead ECGs.

[5] = Minimum effective analgesic plasma concentration in the rat; type: in vivo
[6] = tested on: carageenan-induced inflammation; conditions: rats, 20 mg/kg po; cited from earlier work
[7] = 20 mg/kg po; cited from earlier work
[8] = tested on: U937 human macrophage cells; conditions: cited from earlier work
[9] = pH 5.5, read-out: (Ki) nM (pH 5.5)
[10] = pH 7.4, read-out: (Ki) nM (pH 7.4)

T1 sequence (P30543 whole entry): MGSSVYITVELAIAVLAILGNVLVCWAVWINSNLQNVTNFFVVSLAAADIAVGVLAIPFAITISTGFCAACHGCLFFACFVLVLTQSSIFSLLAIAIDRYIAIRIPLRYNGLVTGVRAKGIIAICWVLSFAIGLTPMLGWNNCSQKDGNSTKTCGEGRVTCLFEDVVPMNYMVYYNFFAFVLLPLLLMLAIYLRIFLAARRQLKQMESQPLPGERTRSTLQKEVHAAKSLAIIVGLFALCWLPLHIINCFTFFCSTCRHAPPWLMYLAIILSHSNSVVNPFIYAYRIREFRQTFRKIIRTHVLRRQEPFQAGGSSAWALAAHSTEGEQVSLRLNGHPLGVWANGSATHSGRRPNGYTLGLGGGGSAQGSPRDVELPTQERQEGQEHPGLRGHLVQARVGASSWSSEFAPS
Sequence of adenosine A2A receptor (P29274 whole entry): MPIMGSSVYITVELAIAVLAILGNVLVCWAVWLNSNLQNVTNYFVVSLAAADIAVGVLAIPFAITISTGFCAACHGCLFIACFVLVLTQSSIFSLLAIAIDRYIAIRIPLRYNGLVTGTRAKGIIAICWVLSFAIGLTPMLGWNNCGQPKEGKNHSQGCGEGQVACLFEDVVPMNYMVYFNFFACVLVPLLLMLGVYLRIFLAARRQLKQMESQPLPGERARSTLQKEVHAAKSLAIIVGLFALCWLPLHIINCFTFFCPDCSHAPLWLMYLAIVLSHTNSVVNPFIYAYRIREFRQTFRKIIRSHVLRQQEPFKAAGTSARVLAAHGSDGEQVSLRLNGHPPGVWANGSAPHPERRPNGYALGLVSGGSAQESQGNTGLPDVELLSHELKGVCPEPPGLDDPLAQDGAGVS

Compound	Ki [1, 9] [nM]	Ki [1, 10] [nM]	minimum plasma concentration giving maximal analgesic relief [2] [µM]	EC50 (adenosine A2A receptor) [nM]	time with plasma concentrations greater than […] ([3]; human, 0.8 mg oral)	minimum effective dose in the human ([3]; suggested from rat minimum effective plasma concentration)	Tachycardia side effect ([4]; single oral dose 0.2 mg)	Tachycardia side effect ([4]; single oral dose 0.8 mg)	Tachycardia side effect ([4]; single oral dose 3.5 mg)	Tachycardia side effect ([4]; single oral dose 10.5 mg)	Tachycardia side effect ([4]; single oral dose 21 mg)	Tachycardia side effect ([4]; single oral dose 28 mg)	minimum effective analgesic plasma concentration [5] [µM]	inhibition of carageenan-induced inflammation [6] [%]	reduction in heart rate [7] [%]	reduction in mean blood pressure [7] [%]	phorbol ester induced TNF alpha release [8]
CCCCNc1nc(N)c2ncn([C@@H]3O[C@H](CO)[C@@H](O)[C@H]3O)c2n1 [NHCH2CH2CH2CH3]	47	17	–	–	–	–	–	–	–	–	–	–	–	–	–	–	–
CCCNc1nc(N)c2ncn([C@@H]3O[C@H](CO)[C@@H](O)[C@H]3O)c2n1 [NHCH2CH2CH3]	1900	1900	–	–	–	–	–	–	–	–	–	–	–	–	–	–	–
COc1nc(N)c2ncn([C@@H]3O[C@H](CO)[C@@H](O)[C@H]3O)c2n1 [spongosine, 2-methoxyadenosine]	–	–	0.06	~1000	approximately 1.5 h	approximately 0.8 mg	No	No	No	No	No	Yes	0.025	25	25	41	reduce phorbol ester induced TNF alpha release
